Experimental findings from patent EP4810498A1, “MEDICATION FOR TREATING SEVERE MALARIA AND SYNTHESIS METHOD THEREFOR” (Institute of Chinese Materia Medica, China Academy of …, priority 2023, dated 2025) are described below.

SMILES strings stand for the structures. pIC50: −log10 of the molar value. Read-outs that look alike come from different tables or passages of the source.

The test system of series [1] is Plasmodium falciparum 3D7. Kind of series: SYBR Green assay, growth inhibition of Plasmodium falciparum cultured in vitro. Format: cell-based. How it is done: Plasmodium falciparum in the ring stage was synchronized. Smearing was carried out and the infection rate was counted. The synchronized parasitized red blood cells, healthy red blood cells and mediums were matched in a reasonable ratio, resulting in an in vitro culture system of plasmodia (ring bodies, 2 to 4 hours-old) with a hematocrit of 2% and an infection rate of 1%. […] A1-A10 was paved with 25 µl of drugs (with 8 complex wells for each drug) and mixed evenly, and then diluted in multiple proportions (Ax-Hx). Except for A12-H12, 50 µL of a plasmodium culture solution was spread in all the other wells; and A12-H12 was spread with 50 µl of healthy red blood cells (in the medium with a hematocrit of 2%). […] 100 µl of a lysis buffer was added to each of the wells and put into a drawer to avoid light for 1 h.
In this experiment, SYBR Green assay was used to determine the median inhibitory concentration (IC50) value of the drug for treating Plasmodium falciparum 3D7. Nonlinear regression was used to calculate the value by means of software graphpad prism 8.0 (the value was equal to average value plus or minus standard error), and a four-parameter logistic fitting curve was used. Each value in the curve was equal to average value plus or minus standard error in eight biological repetitive experiments.

Series [2] concerns Plasmodium berghei ANKA strain. In words: Rapid mouse coma behavior scale (RMCBS) score of cerebral malaria model mice. Format: in vivo, C57BL/6J mice. As to conditions: AS group (15.6 mg/kg), at the end point of observation; total of 20 points. An excerpt: (§1) Experimental study on the antimalarial activity of Artesunazine (Example Ia-1) in vitro and vivo. I. Protection of Artesunazine on mice infected by Plasmodium berghei ANKA strain. (I) Experimental materials: • 1. Animals: C57BL/6J, weighing 16-18 g, 10 in each group, 50 in total. • 2. Plasmodium strain: Plasmodium berghei ANKA strain, donated by Professor Zhao Ya of Air Force Medical University of the People's Liberation Army of China (The Fourth Military Medical University), was preserved in our laboratory by blood transmission or freezing. • 3. Drugs and preparation methods: Artesunazine and a positive control drug artesunate were dissolved in a mixed solvent of polyethylene glycol 400 (PEG400) and water (PEG400:water=4:1), serving as a preparation for immediate use. (II) Experimental methods • 1. Plasmodium resuscitation and passage: A Plasmodium berghei ANKA strain frozen in liquid nitrogen was taken out and placed in a water bath kettle at 37°C. After melting, it was immediately intraperitoneally inoculated into C57BL/6J mice (0.2 mL/mouse). When the infection rate of the breeding mice reached 15-30%, their eyeballs were removed and blood was collected in an anticoagulant tube. After shaking well, the blood was transmitted to offspring C57BL/6J mice with a 1 mL syringe at an injection dose of 0.2 mL/mouse. • 2. Plasmodium inoculation: C57BL/6J mice were weighed and fed adaptively. When the infection rate of offspring C57BL/6J mice reached 15-30%, the total number of red blood cells and the number of pRBCs were counted after their eyeballs were removed and blood was collected. The blood was injected intraperitoneally into model group C57BL/6J mice at an injection dose of 0.2 mL (including 1×10^7 pRBCs) per mouse, which was the 0th day (D0) of inoculation. • 3. Animal grouping: After inoculation, the experimental mice were randomly divided into 5 groups, including a model (M) group, high, medium and low dose Artesunazine groups (i.e., 40 mg/kg, 20 mg/kg, and 10 mg/kg Artesunazine), and an artesunate group (i.e., 15.6 mg/kg AS, clinically equivalent dose). The dosage of the medium dose Artesunazine group (20mg/kg Artesunazine) is equivalent to that of the artesunate group (15.6 mg/kg). There are 10 mice in each group, a total of 50 mice. • 4. Determination of survival rate From the 0th day of inoculation, the death of mice was observed every day for 28 consecutive days. Survival rate = (Number of surviving mice)/(Number of experimental mice) × 100% [formula] • 5. Determination of recurrence rate After inoculation, the mice were randomly divided into groups and administered via nasal drip for 3 h. […] The mouse recurrence rate was calculated by the ratio of the number of mice with recurrence to the total number of mice. […]

Series [3] concerns Plasmodium berghei ANKA strain. In words: Survival rate of cerebral malaria model mice. Format: in vivo, C57BL/6J mice. As to conditions: 15.6 mg/kg AS, nasal drip, four consecutive days; 28 days of observation.
Excerpt: as §1

In series [4] the test system is Plasmodium berghei ANKA strain. Kind of series: Recurrence rate of cerebral malaria model mice (blood smear). Format: in vivo, C57BL/6J mice. As to conditions: AS group (15.6 mg/kg). An excerpt:
Experimental study on the antimalarial activity of Artesunazine (Example Ia-1) in vitro and vivo. I. Protection of Artesunazine on mice infected by Plasmodium berghei ANKA strain. (I) Experimental materials: • 1. Animals: C57BL/6J, weighing 16-18 g, 10 in each group, 50 in total. • 2. Plasmodium strain: Plasmodium berghei ANKA strain, donated by Professor Zhao Ya of Air Force Medical University of the People's Liberation Army of China (The Fourth Military Medical University), was preserved in our laboratory by blood transmission or freezing. • 3. Drugs and preparation methods: Artesunazine and a positive control drug artesunate were dissolved in a mixed solvent of polyethylene glycol 400 (PEG400) and water (PEG400:water=4:1), serving as a preparation for immediate use. (II) Experimental methods • 1. Plasmodium resuscitation and passage: A Plasmodium berghei ANKA strain frozen in liquid nitrogen was taken out and placed in a water bath kettle at 37°C. After melting, it was immediately intraperitoneally inoculated into C57BL/6J mice (0.2 mL/mouse). When the infection rate of the breeding mice reached 15-30%, their eyeballs were removed and blood was collected in an anticoagulant tube. After shaking well, the blood was transmitted to offspring C57BL/6J mice with a 1 mL syringe at an injection dose of 0.2 mL/mouse. • 2. Plasmodium inoculation: C57BL/6J mice were weighed and fed adaptively. When the infection rate of offspring C57BL/6J mice reached 15-30%, the total number of red blood cells and the number of pRBCs were counted after their eyeballs were removed and blood was collected. The blood was injected intraperitoneally into model group C57BL/6J mice at an injection dose of 0.2 mL (including 1×10^7 pRBCs) per mouse, which was the 0th day (D0) of inoculation. • 3. Animal grouping: After inoculation, the experimental mice were randomly divided into 5 groups, including a model (M) group, high, medium and low dose Artesunazine groups (i.e., 40 mg/kg, 20 mg/kg, and 10 mg/kg Artesunazine), and an artesunate group (i.e., 15.6 mg/kg AS, clinically equivalent dose). The dosage of the medium dose Artesunazine group (20mg/kg Artesunazine) is equivalent to that of the artesunate group (15.6 mg/kg). There are 10 mice in each group, a total of 50 mice. • 4. Determination of survival rate From the 0th day of inoculation, the death of mice was observed every day for 28 consecutive days. Survival rate = (Number of surviving mice)/(Number of experimental mice) × 100% [formula] • 5. Determination of recurrence rate After inoculation, the mice were randomly divided into groups and administered via nasal drip for 3 h. After four consecutive days of administration, blood smear test began at D4. A small drop of blood was taken from the tail tip of a mouse and dropped onto a glass slide. The blood drop was pushed to one end at a certain angle with the edge of another glass slide to make a thin blood film with appropriate thickness. After the thin blood film was air-dried, it was fixed with methanol and placed until completely air-dried. After a Giemsa stain solution was diluted at a ratio of 1:9 for staining (completely covering the fixed thin blood film) for 20 min, the thin blood film was rinsed under a faucet, and the water on the surface of the film was quickly absorbed with filter paper. A drop of cedar oil was dropped onto a glass slide for examination under a 100x oil microscope to count the number of parasitized red blood cells contained in 1000 red blood cells. The mouse recurrence rate was calculated by the ratio of the number of mice with recurrence to the total number of mice. Recurrence rate = (Number of mice with recurrence)/(Number of experimental mice) × 100% [formula] • 6. RMCBS score determination A rapid mouse coma behavior scale (RMCBS) was used to evaluate the neurological function of experimental mice. […]

Series [5] deals with Plasmodium berghei ANKA strain. Kind of series: Body weight of cerebral malaria model mice. As to conditions: AS group (15.6 mg/kg), at the end of the observation; in g (unit assumed). Format: in vivo, C57BL/6J mice.
Excerpt: as §1

The conditions of series [6]: mixed solution with ligustrazine hydrochloride in 80% polyethylene glycol 400, dark environment at 40°C.
Experimental: 160.2 mg of Artesunazine was weighed and put into a penicillin bottle, 8 mL of a 80% polyethylene glycol 400 solution was added, and the Artesunazine was completely dissolved by ultrasonic treatment, resulting in about 20.25 mg/mL Artesunazine solution. Subsequently, the penicillin bottle filled with the solution was sealed, covered with aluminum foil paper for light avoidance treatment, and placed in a stability test box at 40°C; and 0.5 mL to 25 mL of the solution was sampled into volumetric flasks on days 0, 3, 7, and 10, respectively. After diluting with methanol and shaking well, the content of the Artesunazine was determined by an ultra performance liquid chromatography (UPLC) method.
The UPLC determination conditions for the Artesunazine are as follows: Instrument: ultra performance liquid chromatography Waters ACQUITY UPLC, chromatographic column: ACQUITY UPLC HSS T3 Column (100 Å, 1.8 µm, 2.1 mm×100 mm), detection wavelength: 295 nm, mobile phase: acetonitrile-0.1% phosphoric acid water (35:65), flow rate: 0.3 ml/min, column temperature: 30°C, sample room temperature: 25°C, injection volume: 3 µL. […]
[7] abbreviates: Plasmodium falciparum, 3D7, 72 h.

As a reminder, the pIC50 is the negative decadic logarithm of the IC50, by convention in mol/L. Consider `Cc1nc(C)c(COCCOC2OC3OC4(C)CCC5C(C)CCC(C2C)C35OO4)nc1C` [Compound Ia-8, 2,3,5-trimethyl-6-[(2-(((3R, 5aS, 6R, 9R, 12R, 12aR)-3,6,9-trimethylbicyclo [3.2.1]heptane-12H-3, 12-epoxide [1, 2]dioxacycloheptane [4,3-i]isochromene-10-yl)oxy)ethoxy)methyl] pyrazine], for which the pIC50 in series [1] (Plasmodium falciparum standard strain 3D7, cultured for 72 h, read-out: IC50) was 6.97.

With `Cc1nc(C)c(COC(=O)C2CCN(CC(=O)OC3OC4OC5(C)CCC6C(C)CCC(C3C)C46OO5)CC2)nc1C` [Compound Ia-9, (3,5,6-trimethylpyrazine-2-yl) methyl 1-(2-oxy-2-(((3R, 5aS, 6R, 9R, 10S, 12R, 12aR)-3,6,9-trimethyldecahydro-12H-3, 12-epoxy [1, 2]dioxacycloheptane-10-yl)oxy)ethyl) piperidine-4-formate], the pIC50 in series [1] (setting [7]) was 7.49.

In the case of `C[C@@H]1CC[C@H]2[C@@H](C)C(=O)O[C@@H]3O[C@@]4(C)CC[C@@H]1[C@]32OO4` [artemisinin, reference compound], the negative logarithm of the IC50 (pIC50) in series [1] (Plasmodium falciparum, 3D7, standard antimalarial drug given for comparison, source of the value not stated, read-out: IC50) was about 7.93.

In turn, `C[C@H]1[C@H](OC(=O)CCC(=O)O)O[C@@H]2O[C@@]3(C)CC[C@H]4[C@H](C)CC[C@@H]1[C@@]24OO3` [artesunate, dihydroartemisinin-12-α-succinate, reference compound] yielded an RMCBS score in series [2] of 16.22±0.55 points. Besides, the survival rate in series [3] amounted to 40%. In series [4] (D4), the “Recurrence rate (%) D4” value is 10%. For the same molecule, the “Recurrence rate (%) D7” value in series [4] (D7) was 90%. In series [4] (D28), the “Recurrence rate (%) D28” value was 100%. Also, the body weight in series [5] turned out to be 15.41±0.50. In addition, the pIC50 in series [1] (setting [7]) was 8.05. In addition, the content of artesunate result in series [6] was “rapidly decreased”.

On to `CCN(CC)CCCC(C)Nc1ccnc2cc(Cl)ccc12` (stereo not shown) [chloroquine, reference compound], for which the pIC50 in series [1] (Plasmodium falciparum, 3D7) is about 8.63.

With `OC(c1cc(C(F)(F)F)nc2c(C(F)(F)F)cccc12)C1CCCCN1` (stereo not shown) [mefloquine, reference compound], in series [1] (Plasmodium falciparum, 3D7, standard antimalarial drugs given for comparison, source of the values not stated, read-out: IC50), the pIC50 was about 8.40.
